{"source": "paper PMC2782309", "about": "(2009)", "target": "TRPM2 (transient receptor potential cation channel, subfamily melastatin, member 2) (Homo sapiens, UniProt O94759)", "sequence (O94759 whole entry, the tested form may be a part)": "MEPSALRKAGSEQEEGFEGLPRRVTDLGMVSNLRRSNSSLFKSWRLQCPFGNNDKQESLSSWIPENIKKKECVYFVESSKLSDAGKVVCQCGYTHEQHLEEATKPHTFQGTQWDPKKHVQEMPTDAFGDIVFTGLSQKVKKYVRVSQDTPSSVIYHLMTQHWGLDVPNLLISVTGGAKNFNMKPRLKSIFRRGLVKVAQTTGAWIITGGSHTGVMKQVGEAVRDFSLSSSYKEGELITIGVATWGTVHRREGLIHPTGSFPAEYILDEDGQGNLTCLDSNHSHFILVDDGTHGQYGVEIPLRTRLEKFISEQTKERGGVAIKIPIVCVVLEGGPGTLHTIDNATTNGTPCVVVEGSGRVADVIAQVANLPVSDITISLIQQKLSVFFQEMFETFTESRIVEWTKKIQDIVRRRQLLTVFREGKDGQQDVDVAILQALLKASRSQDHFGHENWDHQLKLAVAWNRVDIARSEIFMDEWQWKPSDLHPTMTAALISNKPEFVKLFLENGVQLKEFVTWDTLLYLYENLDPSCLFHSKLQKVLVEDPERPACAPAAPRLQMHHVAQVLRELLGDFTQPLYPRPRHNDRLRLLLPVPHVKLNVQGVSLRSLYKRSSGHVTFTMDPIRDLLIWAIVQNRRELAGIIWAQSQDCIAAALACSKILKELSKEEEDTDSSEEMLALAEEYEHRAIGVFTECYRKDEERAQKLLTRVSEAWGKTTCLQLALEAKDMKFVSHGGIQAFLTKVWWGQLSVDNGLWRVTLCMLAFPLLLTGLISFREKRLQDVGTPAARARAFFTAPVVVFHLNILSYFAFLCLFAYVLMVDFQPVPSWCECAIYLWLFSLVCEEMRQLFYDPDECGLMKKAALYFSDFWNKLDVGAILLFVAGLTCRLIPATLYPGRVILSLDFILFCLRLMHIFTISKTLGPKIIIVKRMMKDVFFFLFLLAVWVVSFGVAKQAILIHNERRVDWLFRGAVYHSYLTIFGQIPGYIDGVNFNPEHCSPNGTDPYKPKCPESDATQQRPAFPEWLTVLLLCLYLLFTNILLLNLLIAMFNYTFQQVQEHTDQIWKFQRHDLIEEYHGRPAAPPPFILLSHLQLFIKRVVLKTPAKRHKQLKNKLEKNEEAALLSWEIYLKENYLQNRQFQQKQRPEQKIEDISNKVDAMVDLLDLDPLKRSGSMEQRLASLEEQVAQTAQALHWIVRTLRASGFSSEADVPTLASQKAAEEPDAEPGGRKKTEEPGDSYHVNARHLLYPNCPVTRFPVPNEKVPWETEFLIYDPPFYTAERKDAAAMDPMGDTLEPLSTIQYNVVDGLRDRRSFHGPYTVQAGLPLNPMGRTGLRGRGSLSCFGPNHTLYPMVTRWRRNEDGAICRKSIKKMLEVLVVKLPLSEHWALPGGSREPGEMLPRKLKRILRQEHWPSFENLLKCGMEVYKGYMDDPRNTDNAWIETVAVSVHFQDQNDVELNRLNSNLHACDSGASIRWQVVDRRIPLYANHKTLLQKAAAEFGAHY", "experiment": "whole-cell patch clamp with ADPR infused through the pipette", "assay_type": "cell-based", "data": [{"smiles": "Nc1ncnc2c1ncn2[C@@H]1O[C@H](COP(=O)(O)OP(=O)(O)OC[C@H]2OC(O)[C@H](O)[C@@H]2O)[C@@H](O)[C@H]1O", "note": "(stereo partly shown) [ADPR]", "values": [{"measurement": "EC50", "result": 133, "unit": "µM"}]}]}
